Laboratory results published in US8354106B2, “Antibodies against HMGB1 and fragments thereof” (The Feinstein Institute for Medical Research, priority 2005, dated 2013).
Where no end group is shown, it is not given here. The star is where a group is joined. Biotin = O=C1N[C@H]2[C@H](CS[C@H]2CCCCC(=O)*)N1

Experiments:
immature BM-DCs = test: Phenotypic maturation of murine BM-DCs: surface maturation markers by FACS; format: cell-based, mouse; details: CD11c+ gated, mean fluorescence intensity, peptide 200 μg/ml, HMGB1-Bx 50 μg/ml
Method: In order to determine whether HMGB1-Bx and/or particular HMGB1 peptides could induce phenotypic maturation of murine DCs, immature BM-DCs were exposed to either HMGB1-Bx, a particular HMGB1 peptide, or LPS (FIG. 3). Fluorescence activated cell sorting (FACS) analysis was performed on immature DCs that were cultured in the presence of either HMGB1-Bx (50 μg/ml), an HMGB1 peptide (200 μg/ml), or LPS (100 ng/ml). Untreated DCs (medium) were also tested as a control. DCs were gated on CD11c^+ cells and analyzed for expression of specific maturation markers (e.g., CD86, MHC-II, CD40) by surface membrane immunofluorescence. In particular, 1×10^4 DCs were reacted for at least 20 min at 4° C. in […] of PBS/5% FCS/0.1% sodium azide (staining buffer) with fluorescein isothiocyanate (FITC)-conjugated IgG monoclonal antibodies (mAbs) that are specific for CD86, CD40 or MHC-II (eBioscience). Cells were then washed 4 times with staining buffer, fixed in 10% formaldehyde in PBS (pH 7.2-7.4) and examined by flow cytometry using a FACScan (BD Biosciences). In all experiments, isotype controls were included using a FITC-conjugated irrelevant mAb of the same Ig class. Results are depicted as mean fluorescence intensity (MFI).

[1] = test system: allogeneic T cells co-cultured with BM-DCs; test: Functional maturation of BM-DCs: allogeneic T cell proliferation in mixed lymphocyte reaction (3H-thymidine); format: cell-based, mouse; details: BM-DCs from C57/BL6 mice exposed 48 h; peptide 200 μg/ml, HMGB1-Bx 50 μg/ml; DC:T cell ratio 1:120, 5 days; FIG. 4A
Method: Immature BM-DCs that were generated from C57/BL6 mice (FIG. 4A) or Balb/c mice (FIG. 4B) were incubated for 48 h with either HMGB1-Bx (50 μg/ml), a particular HMGB1 peptide (200 μg/ml), LPS (100 ng/ml) or were left untreated (medium). T cells were isolated by negative selection using the mouse SpinSep antibody cocktail from StemCell Technologies (Vancouver, Calif.), according to the manufacturer's instructions. The cell purity of the isolated T cells was routinely ˜99% pure. In order to assess levels of T cell activation and proliferation, cells were plated at 10^5 cells per well in a round-bottomed 96-well tray at a DC:T cell ratio of 1:120 for 5 days in the medium described above. The microcultures were pulsed with (^3H)-thymidine ([…]) for the final 8 h of culture. Cell cultures were harvested onto glass fiber filters with an automated multiple sample harvester and the amount of isotope incorporation was determined by liquid scintillation β-emission. Responses are reported as mean cpm of thymidine incorporation by triplicate cultures (±SEM).

SIGDVAKKLGEMWNNTAA (Biotin-SIGDVAKKLGEMWNNTAA; listed as Homo sapiens) [Hp-121, control peptide]
CD86 expression on the surface of BM-DCs (immature BM-DCs; FIG. 3A): No altered expression
MHC-II expression on the surface of BM-DCs (immature BM-DCs; FIG. 3B): No altered expression
CD40 expression on the surface of BM-DCs (immature BM-DCs; FIG. 3C): No altered expression
proliferation of resting allogeneic T cells (3H thymidine incorporation) [1]: did not show enhanced T cell stimulatory activity
